Source: ChEMBL document CHEMBL1201862, “PubChem BioAssay data set” (2004)
Active and inactive are the calls of the source.

What was measured:
Beta-lactamase = Beta-lactamase (Pseudomonas aeruginosa, UniProt Q79MP6);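 note: biochemical dose-response test of metallo-beta-lactamase enzyme inhibition, read out by epi-absorbance; purified recombinant IMP-1 metallo-beta-lactamase with nitrocefin as substrate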
[1] = target: T1, Mannose-6-phosphate isomerase (Homo sapiens, UniProt P34949); assay: MPI inhibition at elevated mannose 6-phosphate – biochemical, fluorescence intensity, high mannose 6-phosphate, primary screen (AID 1220)
T1 sequence (P34949 whole entry): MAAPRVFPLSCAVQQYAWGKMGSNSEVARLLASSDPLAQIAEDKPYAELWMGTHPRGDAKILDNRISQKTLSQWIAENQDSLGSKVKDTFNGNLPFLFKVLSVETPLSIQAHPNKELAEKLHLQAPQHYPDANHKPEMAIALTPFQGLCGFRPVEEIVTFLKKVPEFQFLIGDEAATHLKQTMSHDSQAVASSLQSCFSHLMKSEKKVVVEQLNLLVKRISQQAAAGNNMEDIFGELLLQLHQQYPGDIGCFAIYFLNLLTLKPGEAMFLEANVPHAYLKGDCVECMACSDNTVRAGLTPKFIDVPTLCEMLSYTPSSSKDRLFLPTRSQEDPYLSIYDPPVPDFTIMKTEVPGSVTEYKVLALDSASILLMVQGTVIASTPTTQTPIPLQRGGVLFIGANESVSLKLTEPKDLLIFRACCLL

HeLa = assay: viability loss in HeLa cells – cell-based, 24 h, cherry-picked samples, cytotoxicity control, dose response (AID 504726); format: functional; settings: Homo sapiens;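 note: potency for cytotoxicity as loss of luminescence signal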
[2] = target: Dual specificity tyrosine-phosphorylation-regulated kinase 1A (Rattus norvegicus, UniProt Q63470); format: biochemical, Homo sapiens
[3] = target: T2, Histone-lysine N-methyltransferase NSD2 (Homo sapiens, UniProt O96028); format: biochemical
T2 sequence (O96028 whole entry): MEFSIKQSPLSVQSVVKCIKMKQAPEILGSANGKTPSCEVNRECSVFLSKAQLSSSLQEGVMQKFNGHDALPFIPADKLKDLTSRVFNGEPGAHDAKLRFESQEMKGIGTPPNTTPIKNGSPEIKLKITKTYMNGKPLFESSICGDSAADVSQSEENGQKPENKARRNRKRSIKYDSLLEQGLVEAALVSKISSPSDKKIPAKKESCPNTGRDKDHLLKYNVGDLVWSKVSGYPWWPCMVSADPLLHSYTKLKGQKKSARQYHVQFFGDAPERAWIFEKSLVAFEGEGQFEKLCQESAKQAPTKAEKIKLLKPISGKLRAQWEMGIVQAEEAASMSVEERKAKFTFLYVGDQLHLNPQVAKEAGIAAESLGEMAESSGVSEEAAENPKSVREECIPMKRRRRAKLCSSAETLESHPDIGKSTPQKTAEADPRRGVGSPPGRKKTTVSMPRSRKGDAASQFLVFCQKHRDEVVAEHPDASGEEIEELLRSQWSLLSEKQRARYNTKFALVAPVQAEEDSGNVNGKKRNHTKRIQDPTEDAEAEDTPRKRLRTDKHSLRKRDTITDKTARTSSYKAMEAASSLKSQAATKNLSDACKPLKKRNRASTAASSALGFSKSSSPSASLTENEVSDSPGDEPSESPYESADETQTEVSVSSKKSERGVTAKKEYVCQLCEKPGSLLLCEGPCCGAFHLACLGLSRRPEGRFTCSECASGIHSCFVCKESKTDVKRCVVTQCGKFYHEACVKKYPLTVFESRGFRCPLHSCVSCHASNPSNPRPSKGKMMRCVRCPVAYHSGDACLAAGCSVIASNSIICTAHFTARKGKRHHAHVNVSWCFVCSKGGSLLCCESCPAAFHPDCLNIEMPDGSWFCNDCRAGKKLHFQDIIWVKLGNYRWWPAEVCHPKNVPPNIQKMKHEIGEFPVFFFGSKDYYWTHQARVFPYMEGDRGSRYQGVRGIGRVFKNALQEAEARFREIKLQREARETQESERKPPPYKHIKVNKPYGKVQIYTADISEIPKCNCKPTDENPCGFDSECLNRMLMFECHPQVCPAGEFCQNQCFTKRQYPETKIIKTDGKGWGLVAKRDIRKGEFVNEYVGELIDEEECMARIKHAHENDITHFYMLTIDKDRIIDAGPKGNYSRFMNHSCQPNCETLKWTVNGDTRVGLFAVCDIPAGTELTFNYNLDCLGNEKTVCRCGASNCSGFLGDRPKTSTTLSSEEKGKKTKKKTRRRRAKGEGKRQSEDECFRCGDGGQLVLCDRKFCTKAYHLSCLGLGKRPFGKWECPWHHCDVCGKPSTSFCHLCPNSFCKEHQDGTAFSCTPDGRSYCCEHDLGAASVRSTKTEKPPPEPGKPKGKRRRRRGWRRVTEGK

[4] = target: Guanyl-specific ribonuclease T1 (Aspergillus oryzae (strain ATCC 42149 / RIB 40), UniProt P00651); assay: inhibition of ribonuclease T1 activity – biochemical, fluorescence polarization, 1536-well, counter-screen for TPT1 inhibitor project, dose response (AID 2167)
Large T antigen = Large T antigen (Simian virus 40, UniProt P03070); format: functional, Betapolyomavirus macacae;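 note: Confirmatory-stage PubChem screen for compounds that inhibit SV40 T antigen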
[5] = Trypanosoma cruzi growth suppression in host cells – NIH3T3 host cells, beta-gal luminescence, confirmation (AID 2044); format: functional, cell-based;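 note: intracellular parasites grown in NIH/3T3 mouse fibroblasts as host cells; luminescent beta-galactosidase reporter signal from transgenic T. cruzi replicating inside host cells; inhibitors lower the luminescence signal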
Cysteine protease ATG4B = target: T3, Cysteine protease ATG4B (Homo sapiens, UniProt Q9Y4P1); format: functional;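 note: Fluorescence-based dose-response confirmation assay measuring inhibition of ATG4B activity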
T3 sequence (Q9Y4P1 whole entry): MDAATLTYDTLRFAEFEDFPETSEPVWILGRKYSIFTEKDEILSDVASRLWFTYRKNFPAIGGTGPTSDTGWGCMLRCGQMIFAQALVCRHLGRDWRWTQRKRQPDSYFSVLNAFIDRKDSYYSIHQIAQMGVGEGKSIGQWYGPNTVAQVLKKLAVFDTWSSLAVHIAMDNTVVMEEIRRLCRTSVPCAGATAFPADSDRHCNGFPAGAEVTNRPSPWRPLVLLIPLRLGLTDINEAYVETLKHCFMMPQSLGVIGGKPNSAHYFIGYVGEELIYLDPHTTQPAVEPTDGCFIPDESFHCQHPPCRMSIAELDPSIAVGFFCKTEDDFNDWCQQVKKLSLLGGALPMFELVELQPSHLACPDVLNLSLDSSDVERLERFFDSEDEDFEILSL

HEK293 = assay: EBV LMP1 TES2 canonical NF-kB signalling blockers – cell-based, HEK293, luciferase, cherry-pick, dose response (AID 588343); format: functional; settings: Homo sapiens

Beta-lactamase, sequence (Q79MP6 whole entry): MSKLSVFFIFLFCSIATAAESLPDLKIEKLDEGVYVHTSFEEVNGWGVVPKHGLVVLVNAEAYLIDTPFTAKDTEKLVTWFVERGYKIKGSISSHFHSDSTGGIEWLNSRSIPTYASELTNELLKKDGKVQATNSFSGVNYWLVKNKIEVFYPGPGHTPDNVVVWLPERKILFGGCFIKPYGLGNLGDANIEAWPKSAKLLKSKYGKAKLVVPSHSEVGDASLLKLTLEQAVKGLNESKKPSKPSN
Large T antigen, sequence (P03070 whole entry): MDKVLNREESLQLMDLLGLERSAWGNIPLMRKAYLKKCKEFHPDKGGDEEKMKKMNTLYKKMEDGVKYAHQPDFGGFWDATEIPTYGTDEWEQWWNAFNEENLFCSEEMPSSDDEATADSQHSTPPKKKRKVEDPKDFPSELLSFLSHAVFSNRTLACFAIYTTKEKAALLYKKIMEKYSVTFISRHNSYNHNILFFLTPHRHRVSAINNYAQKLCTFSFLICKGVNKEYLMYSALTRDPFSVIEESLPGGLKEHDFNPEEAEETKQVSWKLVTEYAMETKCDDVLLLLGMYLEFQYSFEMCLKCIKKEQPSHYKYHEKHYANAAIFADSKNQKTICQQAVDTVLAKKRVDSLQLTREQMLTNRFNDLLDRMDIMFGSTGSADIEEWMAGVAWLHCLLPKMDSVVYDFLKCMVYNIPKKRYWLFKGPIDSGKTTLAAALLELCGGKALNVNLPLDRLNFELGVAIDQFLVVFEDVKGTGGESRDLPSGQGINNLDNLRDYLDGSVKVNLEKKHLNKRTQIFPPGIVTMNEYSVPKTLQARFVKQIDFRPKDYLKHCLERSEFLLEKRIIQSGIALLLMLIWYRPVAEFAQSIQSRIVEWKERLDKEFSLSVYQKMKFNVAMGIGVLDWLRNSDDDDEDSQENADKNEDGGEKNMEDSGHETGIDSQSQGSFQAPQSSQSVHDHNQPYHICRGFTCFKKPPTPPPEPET
Guanyl-specific ribonuclease T1, sequence (P00651 whole entry): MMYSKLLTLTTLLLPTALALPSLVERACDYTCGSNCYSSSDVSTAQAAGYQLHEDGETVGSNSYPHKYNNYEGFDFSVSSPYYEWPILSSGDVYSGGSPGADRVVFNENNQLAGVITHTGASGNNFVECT

## O=C1CCN2C=Nc3cccc4ccc1c2c34
Beta-lactamase
  IC50: 11.8 µM (inactive)
[1]
  IC50: > 58 µM (not active)
HeLa
  AC50: 20.2 µM (active)
[2]
  AC50: 3 µM (active)
[3]
  AC50: 9.91 µM (active)

## CC(C)C(C(=O)O)N1C(=O)/C(=C/C=C/c2ccco2)SC1=S (stereo not given)
[4]
  IC50: 9.85 µM (active)
Large T antigen
  IC50: 24.6 µM (active)

## Oc1ccc2ccccc2c1/C=N/Nc1nnc(-c2ncc[nH]2)c2ccccc12
[5]
  EC50: 0.412 µM (active)
Cysteine protease ATG4B
  IC50: 2.53 µM (active)
HEK293
  AC50: 1.79 µM (active)
